From ChEMBL document CHEMBL1150703, “Plants as sources of antimalarial drugs, Part 4: Activity of Brucea javanica fruits against chloroquine-resistant Plasmodium falciparum in vitro and against Plasmodium berghei in vivo” (J Nat Prod, 1987)
≈ marks a conversion by molar mass, not a printed value.

Columns and labels:
[1] = tested on: Plasmodium falciparum; assay: Antimalarial activity against multidrug-resistant Plasmodium falciparum K1 infected human erythrocytes assessed by [3H]hypoxanthine uptake; assay type: functional, organism-based
[2] = tested on: Plasmodium berghei; assay: Antimalarial activity as reduced parasitaemia at day 4 against Plasmodium berghei N infected TSW mice (Mus musculus) perorally dosed 3 hrs post infection then daily; assay type: functional; details: po
[3] = tested on: Plasmodium berghei; assay: Antimalarial activity as reduced parasitaemia at day 4 against Plasmodium berghei N infected TSW mice (Mus musculus) at 9 mg/kg perorally dosed 3 hrs post infection then daily; assay type: functional; details: route oral
[4] = tested on: Plasmodium berghei; assay: Antimalarial activity as reduced parasitaemia at day 4 against Plasmodium berghei N infected TSW mice (Mus musculus) at 3 mg/kg peroral dose 3 hrs post infection then daily; assay type: functional; details: route oral
[5] = (§1) Toxicity in Plasmodium berghei N-infected TSW mice (Mus musculus) assessed as mortality before day 5 at 9 mg/kg, perorally administered 3 hrs after infection daily for 4 consecutive days; assay type: organism-based; parameters: dose 9 mg/kg, route oral; details: TSW, in vivo, po, read-out: Activity
[6] = tested on: Mus musculus; assay: as §1; assay type: organism-based; parameters: dose 9 mg/kg, route oral; details: in vivo, po, 3 h
[7] = tested on: Mus musculus; assay: Toxicity in Plasmodium berghei N-infected TSW mice (Mus musculus) assessed as toxic deaths before day 5 at 3 mg/kg, perorally administered 3 hrs after infection daily for 4 consecutive days; assay type: organism-based; parameters: dose 3 mg/kg, route oral; details: in vivo, po
[8] = tested on: Plasmodium falciparum; assay: Antimalarial activity against multidrug-resistant Plasmodium falciparum K1 in human erythrocytes as inhibition of [3H]hypoxanthine uptake; assay type: functional, organism-based

Row | Structure (SMILES) | IC50 [1] | ED50 [2] | ED90 [2] | inhibition in vivo at 3 mg/kg [4] | further results
1 | COC(=O)[C@]12OC[C@]34[C@H]([C@@H](O)[C@@H]1O)[C@@]1(C)CC(=O)C(O)=C(C)[C@@H]1C[C@H]3OC(=O)[C@H](OC(=O)/C=C(\C)C(C)(C)OC(C)=O)[C@@H]24 [BRUCEANTINOL] | 0.002 µg/mL (≈ 0.0033 µM) | – | – | – | –
2 | COC(=O)[C@@]12OC[C@]34[C@H]([C@@H](O)[C@@H]1O)[C@@]1(C)CC(=O)C(O)=C(C)[C@@H]1C[C@H]3OC(=O)[C@H](OC(=O)/C=C(\C)C(C)C)[C@@H]24 [BRUCEANTIN] | 0.0008 µg/mL (≈ 0.00146 µM) | – | – | – | –
3 | COC(=O)[C@@]12OC[C@]34[C@H]([C@@H](O)[C@@H]1O)[C@@]1(C)CC(=O)C(O)=C(C)[C@@H]1C[C@H]3OC(=O)[C@H](OC(=O)CC(C)C)[C@@H]24 [BRUCEINE A] | 0.011 µg/mL (≈ 0.0211 µM) | 3.36 mg/kg/day | 26.7 mg/kg/day | – | inhibition in vivo at 9 mg/kg [3]: 72%
4 | COC(=O)[C@@]12OC[C@]34[C@H]([C@@H](O)[C@@H]1O)[C@@]1(C)CC(=O)C(O)=C(C)[C@@H]1C[C@H]3OC(=O)[C@H](OC(C)=O)[C@@H]24 [BRUCEINE B] | 0.011 µg/mL (≈ 0.0229 µM) | 0.9 mg/kg/day | 2.82 mg/kg/day | 95% | mortality at 3 h [5]: 100%
5 | COC(=O)[C@]12OC[C@]34[C@H]([C@@H](O)[C@@H]1O)[C@@]1(C)CC(=O)C(O)=C(C)[C@@H]1C[C@H]3OC(=O)[C@H](OC(=O)/C=C(\C)C(C)(C)O)[C@@H]24 [BRUCEINE C] | 0.005 µg/mL (≈ 0.00886 µM) | – | – | 40% | Activity [6]: Toxic
6 | CC1=CC(=O)[C@@H](O)[C@]2(C)[C@H]3[C@@H](O)[C@H](O)[C@]4(C)OC[C@@]35[C@@H](C[C@@H]12)OC(=O)[C@H](O)[C@]54O [BRUCEINE D] | 0.015 µg/mL (≈ 0.0365 µM) | 2.79 mg/kg/day | 8.19 mg/kg/day | 50% | Activity [7]: Non-toxic
7 | COC(=O)[C@]12OC[C@]34[C@H]([C@@H](O)[C@@H]1O)[C@@]1(C)CC(=O)C(O)=C(C)[C@@H]1C[C@H]3OC(=O)[C@H](OC(=O)C=C(C)C)[C@@H]24 [BRUSATOL] | 0.003 µg/mL (≈ 0.00576 µM) | 1.27 mg/kg/day | 3.03 mg/kg/day | 98% | –
8 | COC(=O)[C@]12OC[C@@]34[C@@H](CC5=C(C)C(=O)C(O)=C[C@]5(C)[C@H]3[C@@H](O)[C@@H]1O)OC(=O)[C@H](OC(=O)CC(C)C)[C@@H]24 [DEHYDROBRUCEINE A] | 0.046 µg/mL (≈ 0.0884 µM) | – | – | – | –
9 | CC1=CC(=O)[C@@H](O)[C@]2(C)[C@H]3[C@@H](O)[C@H](O)[C@]4(CO)OC[C@@]35[C@@H](C[C@@H]12)OC(=O)[C@H](O)[C@]54O [YADANZIOLIDE A] | 0.031 µg/mL (≈ 0.0727 µM) | – | – | – | –
10 | COC(=O)[C@]12OC[C@]34[C@H]([C@@H](O)[C@@H]1O)[C@@]1(C)C=C(O[C@@H]5O[C@H](CO)[C@@H](O)[C@H](O)[C@H]5O)C(=O)[C@@H](C)[C@@H]1C[C@H]3OC(=O)[C@H](OC(C)=O)[C@@H]24 [YADANZIOSIDE F] | – | – | – | – | IC50 [8]: 5 µg/mL (≈ 7.78 µM)
11 | COC(=O)[C@]12OC[C@]34[C@H]([C@@H](O)[C@@H]1O)[C@@]1(C)CC(=O)C(O[C@@H]5O[C@H](CO)[C@@H](O)[C@H](O)[C@H]5O)=C(C)[C@@H]1C[C@H]3OC(=O)[C@H](OC(C)=O)[C@@H]24 [YADANZIOSIDE I] | 22 µg/mL (≈ 34.3 µM) | – | – | – | –
